The values below come from patent publication US20220016215A1, “GIP RECEPTOR AGONIST PEPTIDE COMPOUNDS AND USES THEREOF” (TAKEDA PHAARMACEUTICAL COMPANY LIMITED, priority 2018, published 2022).

Experiment [1] concerns the target T1, human GIPR (Homo sapiens, UniProt P48546).
T1 construct: expressed in transfected cells
T1 sequence (P48546 22-466): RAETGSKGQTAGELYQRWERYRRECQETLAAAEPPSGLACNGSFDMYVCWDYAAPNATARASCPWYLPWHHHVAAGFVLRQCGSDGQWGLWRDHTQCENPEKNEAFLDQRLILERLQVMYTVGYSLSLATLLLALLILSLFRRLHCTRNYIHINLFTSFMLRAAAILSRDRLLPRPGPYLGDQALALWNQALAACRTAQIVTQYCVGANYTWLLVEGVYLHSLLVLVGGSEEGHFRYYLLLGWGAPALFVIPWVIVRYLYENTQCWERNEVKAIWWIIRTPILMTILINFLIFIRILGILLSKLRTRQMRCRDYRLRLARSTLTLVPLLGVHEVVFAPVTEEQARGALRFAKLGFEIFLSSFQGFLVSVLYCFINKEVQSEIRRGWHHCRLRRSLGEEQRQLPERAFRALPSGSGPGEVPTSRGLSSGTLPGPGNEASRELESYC
Description: Agonist activity on human GIPR, CRE-luciferase reporter assay (increase in intracellular cAMP as indicator). In kind it is cell-based. The conditions noted are these: GLP1R EC50 / GIPR EC50. An excerpt: The human GIPR gene having an identical sequence to Genebank Accession No. U39231 is cloned into a pMSRα-neo vector to prepare hGIPR/pMSRα-neo.
(2) Construction of Reporter Plasmid Expressing Cell
Luciferase reporter gene with a cAMP-responsive sequence located upstream is transferred to a CHO-K1 cell to construct a CRE-LUC/CHO-K1 cell.
(4) Transfer of Human GIPR Gene to CRE-LUC/CHO-K1 Cell and Obtaining of Expressing Cell
The plasmid hGIPR/pMSRα-neo obtained in (1) is transferred to the CRE-LUC/CHO-K1 cell obtained in (2) to obtain a transformant. Subsequently, the cell line inducing the luciferase expression, hGIPR/CRE-LUC/CHO-K1 cell, is selected from the obtained transformant by adding GIP.
25 μL each of the hGIPR/CRE-LUC/CHO-K1 cell is inoculated in a 384-well white plate (Corning) in such a way as to provide 5×10^3 cells/well and may be cultured in a HamF12 medium containing 10% fetal bovine serum, 100 U/mL penicillin, and 100 μg/mL streptomycin in a CO2 incubator at 37° C. overnight. 5 μL of a medium containing a test compound is added to the cells and incubated for 4 hours at the indicated concentration in a CO2 incubator at 37° C. Steady-Glo (Promega) is added in amounts of 30 μL and shaken under light shielding. Twenty minutes later, luciferase activity is measured using a plate reader Envision (PerkinElmer). The GIPR agonist activity is calculated with increase in intracellular cAMP concentration as the indicator when the luciferase activity in the presence of 10 nM of GIP was 100% and the luciferase activity in the case of adding DMSO instead of the test compound was 0%.
In general terms: In a reporter assay the amount or activity of a reporter protein is the signal.

The test system of experiment [2] is morphine (0.6 mg/kg, s.c.)-induced emesis in ferrets. Description: Morphine-induced acute emetic model in male ferrets. In kind it is in vivo, ferret. The settings on record: for Comment: Anti-Emetic Activity (inhibition) on morphine-induced emesis: summary of the morphine experiments. As to the method:
Example 6—In-Vivo Effect of GIP Receptor Agonist Peptides on Emesis in Morphine Induced Emesis Model in Live Male Ferrets
Effect of subcutaneously administered GIP receptor agonist peptide in morphine-induced acute emetic model.
To evaluate the antiemetic effect, the GIP receptor agonist peptides other than natural human GIP were subcutaneously administered into male ferrets 30 minutes before morphine administration. […]. Up to 60 minutes after morphine administration, the condition of the ferrets was monitored to record the frequencies and time points of abdominal contraction motions, vomiting behaviors, licking with the tongue, and fidgety behavior occurring
Effects of Subcutaneously Administered GIP Receptor Agonist Peptides in Morphine-Induced Acute Emetic Model
30 nmol/kg of Compounds 3 and 5 were dissolved with a vehicle (0.09 w/v % tween 80/10% DMSO/saline), respectively, to prepare test solutions. […] of the test solutions and the vehicle were subcutaneously administered to ferrets (4 in each group), respectively. At the time of each of 4 hours, after administration, 0.6 mg/kg of morphine was subcutaneously administered. […] See results in Tables 6, 7 and 8.
(§1) 10 nmol/kg of each compound dissolved with a vehicle (0.09 w/v % tween 80/10% DMSO/saline) respectively, to prepare test solutions. […] of the test solutions and the vehicle were subcutaneously administered to ferrets (4 in each group), respectively. At the time of each of 4 hours, or 120 hours after administration, 0.6 mg/kg of morphine was subcutaneously administered. Up to 360 minutes after morphine administration, the condition of the ferrets was monitored to record the frequencies and time points of abdominal contraction motions, vomiting behaviors, licking with the tongue, and fidgety behavior occurring.
as §1, with “30 nmol/kg” for “10 nmol/kg”, “80/10% DMSO/saline),respectively,” for “80/10% DMSO/saline) respectively,”

The mark [3] stands for this setting: ferret, morphine 0.6 mg/kg s.c. 4 h after drug, 1047 μg/kg s.c.
Setting [4] is: ferret, morphine 0.6 mg/kg s.c. 4 h after drug, 1047 μg/kg s.c., non-responders counted as 30 min.
[5] abbreviates: male ferrets, 30 nmol/kg s.c., morphine 0.6 mg/kg s.c. 4 hours after administration.

Marks after values point to notes of the source that are not given here.

Turning to `CCCCCCCCCCCCCCCC(=O)NCCCC[C@H](NC(=O)[C@H](Cc1c[nH]c2ccccc12)NC(=O)[C@H](CC(=O)O)NC(=O)[C@H](CC(N)=O)NC(=O)[C@H](CCCCN)NC(=O)[C@H](CCCCN)NC(=O)CNC(=O)[C@H](CCCCN)NC(=O)[C@H](CCC(N)=O)NC(=O)[C@H](C)NC(=O)[C@H](CC(C)C)NC(=O)[C@H](CC(C)C)NC(=O)[C@H](Cc1c[nH]c2ccccc12)NC(=O)[C@H](CC(N)=O)NC(=O)[C@@H](NC(=O)[C@H](Cc1ccccc1)NC(=O)[C@H](CC(=O)O)NC(=O)[C@H](CCC(N)=O)NC(=O)[C@H](CCC(N)=O)NC(=O)[C@H](Cc1c[nH]cn1)NC(=O)[C@@H](NC(=O)[C@H](CCCCN)NC(=O)[C@H](CC(=O)O)NC(=O)[C@H](CCSC)NC(=O)[C@H](C)NC(=O)[C@@H](NC(=O)[C@H](CO)NC(=O)[C@H](Cc1ccc(O)cc1)NC(=O)[C@H](CC(=O)O)NC(=O)[C@H](CO)NC(=O)[C@@H](NC(=O)[C@H](Cc1ccccc1)NC(=O)[C@@H](NC(=O)CNC(=O)[C@H](CCC(=O)O)NC(=O)[C@@H](C)NC(=O)[C@@H](N)Cc1ccc(O)cc1)[C@@H](C)O)[C@@H](C)CC)[C@@H](C)CC)[C@@H](C)CC)C(C)C)C(=O)N[C@@H](Cc1c[nH]cn1)C(=O)N[C@@H](CC(N)=O)C(=O)N[C@H](C(=O)N[C@H](C(=O)N[C@@H](CCC(N)=O)C(N)=O)[C@@H](C)CC)[C@@H](C)CC` [Compound 2], the “Selectivity Ratio (B/A)” value in experiment [1] stood at 417. In experiment [2] (setting [3]), the “Emesis: Duration” value is reported as 0.3 ± 0.6 min, the “Emesis: Frequency” value amounted to 2.7 ± 4.6, the “Emesis: No. of animals (responder/used)” value is 1/3 and the “Fidget: Duration” value is reported as 0.3 ± 0.6 min. Moreover, in experiment [2] (setting [3]), the “Fidget: Frequency” value was found to be 0.3 ± 0.6, the “Fidget: No. of animals (responder/used)” value is 1/3, the “Licking: Duration” value was found to be 0.0 ± 0.0 min and the “Licking: Frequency” value amounted to 0.0 ± 0.0. Moreover, in experiment [2] (setting [3]), the “Licking: No. of animals (responder/used)” value was 0/3 #, the “Retching: Duration” value amounted to 0.3 ± 0.6 min, the “Retching: Frequency” value was 2.7 ± 4.6 and the “Retching: No. of animals (responder/used)” value was 1/3. Besides, in experiment [2] (setting [3]), the “Vomiting: Duration” value turned out to be 0.0 ± 0.0 min, the “Vomiting: Frequency” value is recorded as 0.0 ± 0.0 and the “Vomiting: No. of animals (responder/used)” value is given as 0/3. Further, in experiment [2] (setting [4]), the “Emesis: Latency” value is 22.7 ± 12.7 min, the “Fidget: Latency” value turned out to be 22.7 ± 12.7 min, the “Licking: Latency” value is given as 30.0 ± 0.0 min and the “Retching: Latency” value came to 22.7 ± 12.7 min. In experiment [2] (setting [4]), the “Vomiting: Latency” value turned out to be 30.0 ± 0.0 min. Also, the “Attenuation of morphine-induced emesis (in words)” value in experiment [2] (male ferrets, 30 nmol/kg s.c. 30 minutes before morphine 0.6 mg/kg s.c.) is “completely attenuated”. For the same molecule, the “Comment: Anti-Emetic Activity (inhibition) on morphine-induced emesis” value in experiment [2] (male ferrets) is listed as “partial inhibition”.
`CCCCCCCCCCCCCCCC(=O)NCCCC[C@H](NC(=O)[C@H](CC(=O)O)NC(=O)[C@H](CCSC)NC(=O)[C@H](C)NC(=O)[C@@H](NC(=O)[C@H](CO)NC(=O)[C@H](Cc1ccc(O)cc1)NC(=O)[C@H](CC(=O)O)NC(=O)[C@H](CO)NC(=O)[C@@H](NC(=O)[C@H](Cc1ccccc1)NC(=O)[C@@H](NC(=O)CNC(=O)[C@H](CCC(=O)O)NC(=O)[C@H](C)NC(=O)[C@@H](N)Cc1ccc(O)cc1)[C@@H](C)O)[C@@H](C)CC)[C@@H](C)CC)C(=O)N[C@H](C(=O)N[C@@H](Cc1c[nH]cn1)C(=O)N[C@@H](CCC(N)=O)C(=O)N[C@@H](CCC(N)=O)C(=O)N[C@@H](CC(=O)O)C(=O)N[C@@H](Cc1ccccc1)C(=O)N[C@H](C(=O)N[C@@H](CC(N)=O)C(=O)N[C@@H](Cc1c[nH]c2ccccc12)C(=O)N[C@@H](CC(C)C)C(=O)N[C@@H](CC(C)C)C(=O)N[C@@H](C)C(=O)N[C@@H](CCC(N)=O)C(=O)N[C@@H](CCCCN)C(=O)NCC(=O)N[C@@H](CCCCN)C(=O)N[C@@H](CCCCN)C(=O)N[C@@H](CC(N)=O)C(=O)N[C@@H](CC(=O)O)C(=O)N[C@@H](Cc1c[nH]c2ccccc12)C(=O)N[C@@H](CCCCN)C(=O)N[C@@H](Cc1c[nH]cn1)C(=O)N[C@@H](CC(N)=O)C(=O)N[C@H](C(=O)N[C@H](C(=O)N[C@@H](CCC(N)=O)C(N)=O)[C@@H](C)CC)[C@@H](C)CC)C(C)C)[C@@H](C)CC` [Compound 3]: the “Selectivity Ratio (B/A)” value in experiment [1] was 447. The “Ferrets in which the vomiting symptom was observed (in words)” value in experiment [2] (ferrets, morphine administered 4 hours after administration) was “all of the 4 ferrets”. In experiment [2] (setting [5]), the Duration of emesis was 5.5 ± 7.1 min, the Emetic episodes was 21.8 ± 19.2, the Latency period is given as 7.0 ± 2.9 min and the “No. of animals that did not vomit” value was found to be 0. Also, the “Emetic episodes, % Inhibition of mean value” in experiment [2] (male ferrets, 30 nmol/kg s.c., morphine 0.6 mg/kg s.c. 4 hours after administration, vs vehicle) was “[−143%]”. For the same molecule, in experiment [2] (male ferrets), the “Comment: Anti-Emetic Activity (inhibition) on morphine-induced emesis” value was “partial inhibition”.
